Assay results published in article PMC12040169 (PLOS Biology, 2025).

test: in vitro; conditions: human, hela cells, % viability

Going from `COc1ccc(/C=N/NC(=O)c2cc[nH]n2)cc1COc1ccc(Cl)cc1Cl` [CBK263708] to `COc1ccc(C(=O)NCCCN(C)C)cc1Nc1cncc(-c2ccc(O)cc2)n1` [CBK126938T], the viability at 28.5 h, 10 µM rises from 90.9% to 95%.

First: O=[N+]([O-])c1ccc(/C=N/Nc2nnc3c(n2)[nH]c2ccccc23)cc1 [CBK261486]
Second: Cc1nc2c3ccccc3nc(SCC(=O)Nc3ccccc3)n2n1 [CBK295205]
The viability at 28.5 h, 10 µM of the first is higher: 97.8% for the first, 78.5% for the second.

First: O=C(Cn1nnc2ccccc2c1=O)NC(Cc1ccccc1)c1ccccc1 (stereo not shown) [CBK296933]
Second: NC(=O)C1(Cc2ccc(-c3ccccc3)cc2)CCN(C(=O)c2ccccc2)CC1 [CBK285789]
The viability at 28.5 h, 10 µM of the first is higher: 96.6% for the first, 95.1% for the second.

First: Cc1ccc(S(=O)(=O)N(CC(=O)Nc2cccnc2)c2cc(C)ccc2C)cc1 [CBK264115]
Second: COc1ccc(S(=O)(=O)Nc2cc(C(=O)O)ccc2C)cc1NC(C)=O [CBK296946]
The viability at 28.5 h, 10 µM of the first is lower: 61.7% for the first, 93.4% for the second.

Compared with `Cc1cc(=[N+]2CCCCC2)cc(C)o1` [CBK022824I], `COc1ccccc1CN[C@@H]1CCC[C@H]1Cc1cc(C)no1` [CBK283005] is higher in viability at 28.5 h, 10 µM: 96.7% for the first, 103% for the second.

Going from `COc1ccc(-c2c[nH]c([C@@H]3COCCN3Cc3csnn3)n2)cc1` [CBK289297] to `COc1ccc(-n2ncc3c(N4CCN(Cc5ccccc5)CC4)ncnc32)cc1` [CBK265879], the viability at 28.5 h, 10 µM falls from 97.5% to 88.8%.

Going from `O=C(Nc1cccc(Cl)c1)N[C@H]1C[C@H]2C(=O)NC[C@@H](CCC(=O)N3CCCC3)N2C1` [CBK289003] to `Cn1cnc2cc(NC(=O)NCCN3CCCC(CO)C3)ccc21` (stereo not shown) [CBK307582], the viability at 28.5 h, 10 µM rises from 96.1% to 107%.

Going from `O=C(O)CCC(=O)NCC1OCCc2ccccc21` (stereo not shown) [CBK265865] to `Cc1ccccc1-c1ccc2n(c1=O)C[C@H]1C[C@@H]2CN(C(=O)CCC(=O)O)C1` [CBK289181], the viability at 28.5 h, 10 µM rises from 89% to 111%.

Compared with `Cc1ccc(CO)cc1NC(=O)[C@@H]1CN(Cc2ccccc2)C[C@H]1C(=O)c1ccc(F)cc1` [CBK286431], `CN(C)C(=O)c1ccc(-c2ccc3c(c2)OC(C2CCN(C(=O)OCc4ccccc4)CC2)OC3)cc1` (stereo not shown) [CBK144649] is lower in viability at 28.5 h, 10 µM: 105% for the first, 85.5% for the second.

First: N#Cc1c(NC(=O)C(=O)NCc2ccccn2)sc2c1CCCC2 [CBK269360]
Second: Cc1cc(Cl)ccc1CNC(=O)C1(c2ccccc2)CCCC1 [CBK149519]
The viability at 28.5 h, 10 µM of the first is higher: 95.9% for the first, 88.6% for the second.

Compared with `O=C(NC1CCCc2c1cnn2-c1ccc(F)cc1)c1ccncc1` (stereo not shown) [CBK283929], `Cc1nc(C2CCCCN2C(=O)C2CCCCC2)ncc1C(=O)NCc1ccc(F)cc1` (stereo not shown) [CBK285554] is lower in viability at 28.5 h, 10 µM: 91.6% for the first, 86.5% for the second.

Compared with `COc1ccc(COc2nc3c(c(=O)n(C)c(=O)n3C)n2Cc2ccc(Cl)c(Cl)c2)cc1` [CBK268779], `COc1ccnc2c1c(=O)n(Cc1ccc(Cl)cc1)c(=O)n2C` [CBK287645] is lower in viability at 28.5 h, 10 µM: 91.3% for the first, 66.9% for the second.

First: Clc1cccc(CNc2cncc(-c3cccs3)n2)c1 [CBK065609]
Second: O=C(NCCn1nc(-c2cccs2)ccc1=O)c1ccco1 [CBK283838]
The viability at 28.5 h, 10 µM of the first is higher: 105% for the first, 90.1% for the second.

Compared with `CCc1c(C)nc2ccccc2c1SCCC(=O)O` [CBK116382C], `CCOC(=O)CSc1nc(=O)cc(N)n1Cc1ccc(F)cc1` [CBK269938] is lower in viability at 28.5 h, 10 µM: 118% for the first, 91.1% for the second.

Compared with `CC(=O)N1CC2(CCN(C(=O)C(C)(C)C)CC2)Nc2ccccc21` [CBK284448], `N#Cc1cccc(NC(=O)CN2CCN(C(=O)C3COc4ccccc4O3)CC2)c1` (stereo not shown) [CBK074779] is lower in viability at 28.5 h, 10 µM: 102% for the first, 93.5% for the second.

Compared with `O=C(O)c1ccc(Cl)c2c1C1C=CCC1C(c1ccc(S(=O)(=O)N3CCOCC3)cc1)N2` (stereo not shown) [CBK268401], `CN1CCN(S(=O)(=O)c2ccc3oc(=O)ccc3c2)CC1` [CBK062431] is higher in viability at 28.5 h, 10 µM: 108% for the first, 118% for the second.

Going from `CC(Cn1cncn1)NS(=O)(=O)c1cccc(C(=O)N2CCCCC2)c1` (stereo not shown) [CBK306594] to `CC(=O)Nc1ccc(-c2ccc(C(=O)N3CCN(C(=O)N4CCCC4)CC3)cn2)cc1` [CBK160187], the viability at 28.5 h, 10 µM rises from 86.7% to 94.5%.

Compared with `CC1CCCCN1C(=O)CCn1c(C(F)F)cc2cccnc21` (stereo not shown) [CBK285024], `FC(F)(F)c1[nH]c2ncccc2c1CN1CCN2CCCCC2C1` (stereo not shown) [CBK285355] is lower in viability at 28.5 h, 10 µM: 89.5% for the first, 80.9% for the second.

Going from `CC(C)(O)C#Cc1ccc(C(=O)NCCC(=O)O)s1` [CBK267704] to `Cc1sc(NC(=O)CC(C)(C)CC(=O)Nc2sc(C)c(C)c2C(=O)O)c(C(=O)O)c1C` [CBK296094], the viability at 28.5 h, 10 µM rises from 97.1% to 98.7%.

Going from `O=C(Cn1ccc(=O)[nH]c1=O)NCc1cccnc1-n1cccn1` [CBK305705] to `COc1cccc2c1cc(C(=O)NCCCc1ccccn1)n2C` [CBK283283], the viability at 28.5 h, 10 µM falls from 85% to 83.7%.

Compared with `Nc1ncc(-c2cccc3ccccc23)nc1N1CCC[C@@H]1CO` [CBK063517], `COc1ccc(-c2cnc(N)c(N3CCC[C@@H]3CO)n2)c(OC)c1OC` [CBK063505] is higher in viability at 28.5 h, 10 µM: 94.1% for the first, 98.5% for the second.

First: Nc1nc2c(ccn2[C@@H]2O[C@H](CO)[C@H](O)C2O)c(=O)[nH]1 (stereo partly shown) [CBK201190]
Second: CC1CCCN(Cc2c(C3CCNCC3)[nH]c3ncccc23)C1C (stereo not shown) [CBK285084]
The viability at 28.5 h, 10 µM of the first is higher: 92% for the first, 89.1% for the second.

Compared with `Cc1cc(COc2nc3ccccc3nc2NC(C)C(C)C)no1` (stereo not shown) [CBK174007], `Cc1ccccc1-c1noc(C(C)NC(=O)C2(Cn3ccnc3)CC2)n1` (stereo not shown) [CBK306684] is lower in viability at 28.5 h, 10 µM: 117% for the first, 99.7% for the second.

Compared with `Cn1c(=O)n(C)c2cc(S(=O)(=O)NCCOc3ccc(C(=O)O)cc3)ccc21` [CBK299824], `COc1ccc(Cn2c(=O)n(S(=O)(=O)c3ccc(-c4cc(C(F)(F)F)n(C)n4)s3)c3ccccc32)cc1` [CBK106552] is higher in viability at 28.5 h, 10 µM: 94.9% for the first, 97.7% for the second.

Going from `Cc1nn2c(-c3ccncc3)ccnc2c1-c1ccccc1` [CBK288548] to `COc1cnc(-c2ccccc2)c(NC(C)=O)n1` [CBK145410], the viability at 28.5 h, 10 µM falls from 103% to 93.4%.

First: COc1cccc2ncn(CCNS(C)(=O)=O)c(=O)c12 [CBK306583]
Second: CCCOC(=O)Cn1cnc2sc(C)c(C)c2c1=O [CBK304371]
The viability at 28.5 h, 10 µM of the first is lower: 81% for the first, 88.9% for the second.

Compared with `O=C(c1ccco1)N1CCC(n2nc(C3CC3)ccc2=O)CC1` [CBK282350], `CCC(C)NC(=O)C1CCC(=O)N1Cc1ccc(C)cc1` (stereo not shown) [CBK294470] is lower in viability at 28.5 h, 10 µM: 109% for the first, 90% for the second.

Compared with `Cc1cc(NC(=O)CN2CCN(Cc3ccccc3C#N)CC2)no1` [CBK305644], `CCNC(=O)O[C@@H]1CO[C@H]2[C@@H]1OC[C@@H]2NS(=O)(=O)c1ccccc1C#N` [CBK289474] is higher in viability at 28.5 h, 10 µM: 77.3% for the first, 87.6% for the second.

Going from `CNC(=O)c1ccc(-c2cc(OC)c(OC)c(OC)c2)nc1NCCOC` [CBK105997] to `COc1ccc(CCNc2ncnc3c2cnn3-c2ccc(C)cc2C)cc1OC` [CBK294448], the viability at 28.5 h, 10 µM falls from 94.1% to 88.2%.

Going from `CCOC(=O)c1c(N)sc2c1CC(c1ccccc1)SC2c1ccccc1` (stereo not shown) [CBK293955] to `Cc1ccc(-c2nnc(CN3C(=O)C4(CC(=O)N(Cc5ccccc5)C4=O)c4ccccc43)o2)cc1` (stereo not shown) [CBK075749], the viability at 28.5 h, 10 µM rises from 87.5% to 103%.

Going from `Cc1nc(SCC(=O)NC(C)c2cccnc2)oc1C` (stereo not shown) [CBK282198] to `Cc1cc(C)c2c(OCC(=O)NC(C)C)nn(C)c2n1` [CBK306393], the viability at 28.5 h, 10 µM falls from 93.2% to 87.4%.

First: CCC(C)c1ccc(NC(S)=NCc2ccccn2)cc1 (stereo not shown) [CBK266966]
Second: Cc1ccc(C2(C(=O)NC(C)c3ccccn3)CCOCC2)cc1 (stereo not shown) [CBK281903]
The viability at 28.5 h, 10 µM of the first is lower: 89.2% for the first, 90.5% for the second.

Compared with `O=C(O)c1cccc2cccc(-c3cccc4cccc(C(=O)O)c34)c12` [CBK015494], `FC(F)(F)c1ccc(Oc2ccc(-c3noc(-c4ccccn4)n3)cc2)nc1` [CBK270152] is lower in viability at 28.5 h, 10 µM: 109% for the first, 90.1% for the second.

Going from `Oc1cccc(OCCOc2cccc(C(F)(F)F)n2)c1` [CBK115797] to `CCOC(=O)C(NCCc1ccc(OC)c(OC)c1)(NC(=O)c1ccco1)C(F)(F)F` (stereo not shown) [CBK013715], the viability at 28.5 h, 10 µM rises from 84.7% to 123%.

Going from `CCN(CC)C(=O)c1sc2ncccc2c1NS(=O)(=O)c1cc(Cl)sc1Cl` [CBK050615] to `CN(C)CCN(Cc1ccccc1)C(=O)NCc1cccnc1` [CBK145048], the viability at 28.5 h, 10 µM falls from 92.2% to 89.6%.

First: O=c1[nH]nc2n1-c1ccccc1OC2 [CBK010583]
Second: O=C1CCCC[C@]2(CN(Cc3ccccc3)C[C@H]2c2cccnc2)N1 [CBK283342]
The viability at 28.5 h, 10 µM of the first is lower: 104% for the first, 106% for the second.

Compared with `CC(C)CC(=O)NCCn1nc(-c2cccs2)oc1=O` [CBK282342], `CC(C)c1ccc(C2C(C(=O)c3ccco3)=C(O)C(=O)N2CCCN(C)C)cc1` (stereo not shown) [CBK264549] is lower in viability at 28.5 h, 10 µM: 114% for the first, 94.8% for the second.

Compared with `Cc1ccccc1Nc1nc(N)nc(CN(CCC#N)CC2CCC2)n1` [CBK305308], `Clc1cc2nc(OCCCc3ccncc3)c(N3CCCC3)nc2cc1Cl` [CBK115774] is higher in viability at 28.5 h, 10 µM: 89.3% for the first, 98% for the second.

First: Nc1ncc(-c2cccc(/C=C/C(=O)O)c2)nc1NCc1ccco1 [CBK063691]
Second: C=CCC1(CC=C)CCN1C(=O)c1cc(-c2ccccn2)n[nH]1 [CBK282448]
The viability at 28.5 h, 10 µM of the first is lower: 98.7% for the first, 106% for the second.

Going from `Cc1ccc(SC(C)C(=O)Nn2cnnc2)cc1` (stereo not shown) [CBK268570] to `CCOc1ccc(CCC(=O)N2CCCc3c(cnn3C)C2)cc1` [CBK285276], the viability at 28.5 h, 10 µM falls from 93.3% to 85.8%.

Compared with `CCOc1ccc(C(=O)Nc2ccc(-c3nc4cc(C)c(C)cc4o3)cc2)cc1[N+](=O)[O-]` [CBK262818], `CCOC(=O)Cc1csc(NC(=O)CSc2nc3cc4c(cc3cc2C)OCO4)n1` [CBK109112] is higher in viability at 28.5 h, 10 µM: 94.2% for the first, 105% for the second.

Compared with `CC(=O)Nc1cc(S(N)(=O)=O)c(F)cc1C` [CBK034356], `C#C[C@H]1C[N@@]2CC[C@H]1C[C@@H]2CNS(=O)(=O)c1ccc(NC(C)=O)cc1` [CBK288752] is higher in viability at 28.5 h, 10 µM: 94.1% for the first, 103% for the second.

Compared with `Cn1nc(C(C)(C)C)c2cc(C(=O)N3CCCc4occc4C3)cnc21` [CBK304713], `CCN1CC2(CCC1=O)CCN(c1ccnc(OC)c1C#N)CC2` [CBK307018] is lower in viability at 28.5 h, 10 µM: 97.7% for the first, 95% for the second.

Compared with `CC1(CNC(=O)c2cn3cc(Cl)ccc3n2)COC1` [CBK281748], `CC1CN(Cc2nc3c(c(=O)n(C)c(=O)n3C)n2CCCO)CC(C)O1` (stereo not shown) [CBK269298] is higher in viability at 28.5 h, 10 µM: 91.4% for the first, 99% for the second.
